Drawing on patent publication US20160002248A1, “GLS1 INHIBITORS FOR TREATING DISEASE” (Board of Regents, The University of Texas System, priority 2014, published 2016), this text covers IC50 and EC50 for 21 compounds.

For assay [1], the target named is T1, purified recombinant human GAC (GLS1) (Homo sapiens, UniProt O94925).
T1 sequence (O94925 55-598 isoform O94925-3 limits assumed): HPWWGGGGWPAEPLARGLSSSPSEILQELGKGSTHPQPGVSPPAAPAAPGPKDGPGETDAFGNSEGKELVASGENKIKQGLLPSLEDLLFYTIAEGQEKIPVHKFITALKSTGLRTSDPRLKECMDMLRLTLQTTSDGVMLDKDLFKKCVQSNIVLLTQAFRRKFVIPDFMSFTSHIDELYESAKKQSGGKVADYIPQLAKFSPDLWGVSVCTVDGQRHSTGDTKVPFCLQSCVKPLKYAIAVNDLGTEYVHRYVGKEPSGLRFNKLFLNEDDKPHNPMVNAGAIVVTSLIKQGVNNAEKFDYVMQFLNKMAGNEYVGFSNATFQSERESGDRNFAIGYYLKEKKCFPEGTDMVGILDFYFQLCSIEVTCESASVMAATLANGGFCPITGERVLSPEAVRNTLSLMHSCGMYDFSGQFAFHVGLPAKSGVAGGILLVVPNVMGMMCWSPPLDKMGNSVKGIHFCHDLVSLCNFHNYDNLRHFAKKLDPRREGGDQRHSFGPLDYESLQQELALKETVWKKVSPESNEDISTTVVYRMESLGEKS
Nature of the assay: GLS1 Enzymatic Activity Assay (dual-coupled enzymatic assay). The class given is biochemical. As for the experimental part: GLS1 Enzymatic Activity Assay
The inhibition of purified recombinant human GAC by varying concentrations of inhibitors is assessed via a dual-coupled enzymatic assay. The glutamate produced by the glutaminase reaction is used by glutamate oxidase to produce α-ketoglutarate, ammonia, and hydrogen peroxide, with this hydrogen peroxide subsequently being used by horseradish peroxidase to produce resorufin in the presence of Amplex UltraRed. The assay buffer consisted of 50 mM Hepes (pH 7.4), 0.25 mM EDTA and 0.1 mM Triton X-100. GAC was incubated with potassium phosphate (10 minutes at room temperature) prior to incubation with inhibitor (10 minutes at room temperature). The final reaction conditions were as follows: 2 nM GAC, 50 mM potassium phosphate, 100 mU/mL glutamate oxidase (Sigma), 1 mM glutamine (Sigma), 100 mU/mL horseradish peroxidase (Sigma), 75 μM Amplex UltraRed (Life Technologies), and 1% (v/v) DMSO. The production of resorufin was monitored on a Perkin Elmer Envision plate reader (excitation 530 nm, emission 590 nm) either in a kinetics or endpoint mode (at 20 minutes). IC50 values were calculated using a four-parameter logistic curve fit.

In another assay the test system is A549 cells. Nature of the assay: Proliferation Assay (A549 cell viability, Cell Titer Fluor). The class given is cell-based. The note with it: Homo sapiens, 72 hours. Here is the method: A549 cells were routinely maintained in RPMI 1640 media (Gibco catalog number 11875-093) supplemented with 10% dialyzed fetal bovine serum using a humidified incubator (37° C., 5% CO2 and ambient O2). In preparation for the viability assay, cells were inoculated into 384-well black CulturPlates (Perkin Elmer) at a density of 1000 cells/well in a volume of 40 uL. Following a 24-hour incubation at 37° C., 5% CO2 and ambient O2, cells were treated with compound (10 uL) in a final DMSO concentration of 0.5% (v/v). The microplates were then incubated for 72 hours (37° C., 5% CO2 and ambient O2). Cell Titer Fluor (Promega) was subsequently added (10 uL of 6× reagent) and mixed for 15 minutes at room temperature. The plates were then incubated for 30 minutes (37° C., 5% CO2 and ambient O2) and fluorescence was subsequently read on the Perkin Elmer Envision plate reader. EC50 values were calculated using a four-parameter logistic curve fit.

By IC50 is commonly meant the midpoint of a concentration-inhibition curve. The term EC50 denotes the concentration that produces a half-maximal response. Read a high EC50 as weaker potency.

Regarding `CC(C)(O)c1ccnc(CNC(=O)c2cn(CCCCc3cc4cc(C5CC5)[nH]c4nn3)nn2)c1` [Example 17, 1-(4-(6-Cyclopropyl-7H-pyrrolo[2,3-c]pyridazin-3-yl)butyl)-N-((4-(2-hydroxypropan-2-yl)pyridin-2-yl)methyl)-1H-1,2,3-triazole-4-carboxamide 2,2,2-trifluoroacetate], in assay [1], the IC50 lay in the range of 100 to 500 nM. This compound had an EC50 in the assay on A549 cells of 500 to 5000 nM.

With `Cc1ccc(CNC(=O)c2cn(CCCCc3cc4c(Br)c(C5CC5)[nH]c4nn3)nn2)cn1` [Example 18, 1-(4-(5-Bromo-6-cyclopropyl-7H-pyrrolo[2,3-c]pyridazin-3-yl)butyl)-N-((6-methylpyridin-3-yl)methyl)-1H-1,2,3-triazole-4-carboxamide 2,2,2-trifluoroacetate], the IC50 in assay [1] is below 100 nM. For the same compound, in the assay with A549 cells, the EC50 is 100 to 500 nM.

Regarding `Cc1ccc(CNC(=O)c2cn(CCCCc3cc4c(Cl)c(C5CC5)[nH]c4nn3)nn2)cn1` [Example 19, 1-(4-(5-Chloro-6-cyclopropyl-7H-pyrrolo[2,3-c]pyridazin-3-yl)butyl)-N-((6-methylpyridin-3-yl)methyl)-1H-1,2,3-triazole-4-carboxamide 2,2,2-trifluoroacetate], the IC50 in assay [1] is below 100 nM. The EC50 in the assay on A549 cells lay within 500 to 5000 nM.

For the compound `O=C(NCc1ccccn1)c1cn(CCCCc2cc3c(-c4ccccc4)c[nH]c3nn2)nn1` [Example 20, 1-(4-(5-phenyl-7H-pyrrolo[2,3-c]pyridazin-3-yl)butyl)-N-(pyridin-2-ylmethyl)-1H-1,2,3-triazole-4-carboxamide], in assay [1], the IC50 lay in the range of 500 to 5000 nM. Further, in the assay on A549 cells, the EC50 is above 5000 nM.

In the case of `O=C(NCc1ccccn1)c1cn(CCCCc2cc3cc(C4(O)COC4)[nH]c3nn2)nn1` [Example 21, 1-(4-(6-(3-hydroxyoxetan-3-yl)-7H-pyrrolo[2,3-c]pyridazin-3-yl)butyl)-N-(pyridin-2-ylmethyl)-1H-1,2,3-triazole-4-carboxamide], the IC50 in assay [1] was in the range of 100 to 500 nM. In the assay on A549 cells, the EC50 was above 5000 nM.

Regarding `O=C(Cc1ccccc1)Nc1nnc(CCCCc2cnc3[nH]ccc3c2)s1` [Example 24, N-(5-(4-(1H-pyrrolo[2,3-b]pyridin-5-yl)butyl)-1,3,4-thiadiazol-2-yl)-2-phenylacetamide], the IC50 in assay [1] was 100 to 500 nM. The compound also returned an EC50 with A549 cells above 5000 nM.

As for `O=C(Cc1ccccn1)Nc1nnc(CCCCc2cc3cc(Cc4ccccc4)[nH]c3nn2)s1` [Example 26, N-[5-(4-{6-benzyl-7H-pyrrolo[2,3-c]pyridazin-3-yl}butyl)-1,3,4-thiadiazol-2-yl]-2-(pyridin-2-yl)acetamide], the IC50 in assay [1] is below 100 nM. For the same compound, the concentration giving a half-maximal response (EC50) with A549 cells lay within 100 to 500 nM.

In the case of `O=C(NCc1cccc(OC(F)(F)F)c1)c1cn(CCCCc2cc3cc[nH]c3nn2)nn1` [Example 27, 1-(4-{7H-pyrrolo[2,3-c]pyridazin-3-yl}butyl)-N-{[3-(trifluoromethoxy)phenyl]methyl}-1H-1,2,3-triazole-4-carboxamide], the IC50 in assay [1] fell in the range of 100 to 500 nM. In addition, the EC50 with A549 cells fell in the range of 500 to 5000 nM.

On to `CC(C)Cc1cc2cc(CCCCn3cc(C(=O)NCc4ccccn4)nn3)nnc2[nH]1` [Example 28, 1-{4-[6-(2-methylpropyl)-7H-pyrrolo[2,3-c]pyridazin-3-yl]butyl}-N-(pyridin-2-ylmethyl)-1H-1,2,3-triazole-4-carboxamide], for which the IC50 in assay [1] lay in the range of 500 to 5000 nM. Moreover, the EC50 with A549 cells was 100 to 500 nM.

`O=C(Cc1ccccc1)Nc1ccn(CCCCc2cc3cc(C4CC4)[nH]c3nn2)c(=O)c1` [Example 29, N-[1-(4-{6-cyclopropyl-7H-pyrrolo[2,3-c]pyridazin-3-yl}butyl)-2-oxo-1,2-dihydropyridin-4-yl]-2-phenylacetamide]: in assay [1], the IC50 is 100 to 500 nM. The same compound had an EC50 in the assay with A549 cells of 500 to 5000 nM.

For `CC(C)(C)c1cc2cc(CCCCn3ccc(NC(=O)Cc4ccccc4)cc3=O)nnc2[nH]1` [Example 30, N-[1-(4-{6-tert-butyl-7H-pynolo[2,3-c]pyridazin-3-yl}butyl)-2-oxo-1,2-dihydropyridin-4-yl]-2-phenylacetamide], in assay [1], the half-maximal inhibitory concentration (IC50) was 100 to 500 nM. Further, the EC50 with A549 cells lay in the range of 500 to 5000 nM.

Regarding `O=C(NCc1cccc(OC(F)(F)F)c1)c1cn(CCCCc2cc3cc(C4CC4)[nH]c3nn2)nn1` [Example 32, 1-(4-{6-cyclopropyl-7H-pyrrolo[2,3-c]pyridazin-3-yl}butyl)-N-{[3-(trifluoromethoxy)phenyl]methyl}-1H-1,2,3-triazole-4-carboxamide], the IC50 in assay [1] is below 100 nM. Moreover, the EC50 with A549 cells was 100 to 500 nM.

As to `COc1cccc(CNC(=O)c2cn(CCCCc3cc4cc(C5CC5)[nH]c4nn3)nn2)n1` [Example 33, 1-(4-{6-cyclopropyl-7H-pyrrolo[2,3-c]pyridazin-3-yl}butyl)-N-[(6-methoxypyridin-2-yl)methyl]-1H-1,2,3-triazole-4-carboxamide], in assay [1], the IC50 was in the range of 100 to 500 nM. Further, the concentration giving a half-maximal response (EC50) in the assay on A549 cells is 500 to 5000 nM.

For the compound `O=C(NCc1ccccn1)c1cn(CCCCc2cc3cc(Cc4ccccc4)[nH]c3nn2)nn1` [Example 34, 1-(4-{6-benzyl-7H-pyrrolo[2,3-c]pyridazin-3-yl}butyl)-N-(pyridin-2-ylmethyl)-1H-1,2,3-triazole-4-carboxamide], the IC50 in assay [1] was below 100 nM. Also, the EC50 in the assay on A549 cells lay within 500 to 5000 nM.

In the case of `Cc1ccc(CNC(=O)c2cn(CCCCc3cc4cc(C5CC5)[nH]c4nn3)nn2)cn1` [Example 35, 1-(4-{6-cyclopropyl-7H-pyrrolo[2,3-c]pyridazin-3-yl}butyl)-N-[(6-methylpyridin-3-yl)methyl]-1H-1,2,3-triazole-4-carboxamide], the IC50 in assay [1] is below 100 nM. The compound also yielded an EC50 in the assay on A549 cells of 100 to 500 nM.

As to `O=C(NCc1cccnc1)c1cn(CCCCc2cc3cc(C4CC4)[nH]c3nn2)nn1` [Example 36, 1-(4-{6-cyclopropyl-7H-pyrrolo[2,3-c]pyridazin-3-yl}butyl)-N-(pyridin-3-ylmethyl)-1H-1,2,3-triazole-4-carboxamide], the IC50 in assay [1] was in the range of 100 to 500 nM. Also, in the assay with A549 cells, the EC50 lay within 100 to 500 nM.

In the case of `O=C(NCc1ccncc1)c1cn(CCCCc2cc3cc(C4CC4)[nH]c3nn2)nn1` [Example 37, 1-(4-{6-cyclopropyl-7H-pyrrolo[2,3-c]pyridazin-3-yl}butyl)-N-(pyridin-4-ylmethyl)-1H-1,2,3-triazole-4-carboxamide], the IC50 in assay [1] fell in the range of 100 to 500 nM. Also, the EC50 in the assay on A549 cells lay in the range of 500 to 5000 nM.

For `O=C(NCc1ncccn1)c1cn(CCCCc2cc3cc(C4CC4)[nH]c3nn2)nn1` [Example 38, 1-(4-{6-cyclopropyl-7H-pyrrolo[2,3-c]pyridazin-3-yl}butyl)-N-(pyrimidin-2-ylmethyl)-1H-1,2,3-triazole-4-carboxamide], the IC50 in assay [1] was 500 to 5000 nM. The EC50 with A549 cells fell in the range of 500 to 5000 nM.

For the compound `COc1ccnc(CNC(=O)c2cn(CCCCc3cc4cc(C5CC5)[nH]c4nn3)nn2)c1` [Example 39, 1-(4-{6-cyclopropyl-7H-pyrrolo[2,3-c]pyridazin-3-yl}butyl)-N-[(4-methoxypyridin-2-yl)methyl]-1H-1,2,3-triazole-4-carboxamide], in assay [1], the IC50 was in the range of 100 to 500 nM. In the assay with A549 cells, this compound returned an EC50 of 100 to 500 nM.

As for `O=C(NCc1ccc(C(F)(F)F)nc1)c1cn(CCCCc2cc3cc(C4CC4)[nH]c3nn2)nn1` [Example 40, 1-(4-{6-cyclopropyl-7H-pyrrolo[2,3-c]pyridazin-3-yl}butyl)-N-{[6-(trifluoromethyl)pyridin-3-yl]methyl}-1H-1,2,3-triazole-4-carboxamide], in assay [1], the IC50 was below 100 nM. This compound also displayed an EC50 with A549 cells of 500 to 5000 nM.

Consider `O=C(NCc1ccc(Cl)nc1)c1cn(CCCCc2cc3cc(C4CC4)[nH]c3nn2)nn1` [Example 41, N-[(6-chloropyridin-3-yl)methyl]-1-(4-{6-cyclopropyl-7H-pyrrolo[2,3-c]pyridazin-3-yl}butyl)-1H-1,2,3-triazole-4-carboxamide], for which, in assay [1], the IC50 fell in the range of 100 to 500 nM. This compound gave an EC50 in the assay with A549 cells of 500 to 5000 nM.
